Data: patent publication US20230031406A1, “COMPOUNDS AND COMPOSITIONS FOR TREATING CONDITIONS ASSOCIATED WITH NLRP ACTIVITY” (Novartis AG, priority 2018, published 2023)
Read-outs that look alike come from different tables or passages of the source. One block for each compound: values may come before it.

Tested on: PMA-differentiated THP-1 cells
Experiment: IL-1β production in PMA-differentiated THP-1 cells stimulated with gramicidin (hTHP-1 assay containing 2% fetal bovine serum; Procedures 1 and 2)
Type: cell-based, human
Details: 2% fetal bovine serum
Procedure, shortened: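 PMA-primed (20 ng/ml, 16-18 h) THP-1 cells in RPMI with 2% FBS, 50,000 cells/well, were preincubated 1 h with compound (0.0017-100 μM final, 0.37% DMSO), then stimulated 2 h with 5 μM gramicidin. Supernatant IL-1β measured by HTRF.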

[1] = Homo sapiens, THP-1, Table B3, hTHP-1 assay, numeric values, read-out: IC50
[2] = Homo sapiens, THP-1, Table B1, class symbols, read-out: Average IC50 of compounds in hTHP-1 assay: hTHP-1 IC50
[3] = Homo sapiens, THP-1, Table B3, hTHP-1 assay, class symbols, read-out: IC50
[4] = Homo sapiens, THP-1, Table B2, class symbols, read-out: hTHP-1 IC50
[5] = Table B3, hTHP-1 assay, class symbols, read-out: IC50
[6] = Table B1, class symbols, read-out: Average IC50 of compounds in hTHP-1 assay: hTHP-1 IC50
[7] = Table B2, class symbols, read-out: hTHP-1 IC50
[8] = Homo sapiens, THP-1, Table B2, numeric bounds, read-out: hTHP-1 IC50

IC50 [1]: > 30 µM
Structure (SMILES): CC1(C)CCc2c1nc1c(c2NC(=O)NS(=N)(=O)c2cnc([C@@](C)(O)COCCOCCOCCOCCO)s2)CCC1 (stereo partly drawn) [Example 584, 2-((S)-1,14-dihydroxy-3,6,9,12-tetraoxapentadecan-14-yl)-N-((3,3-dimethyl-1,2,3,5,6,7-hexahydrodicyclopenta[b,e]pyridin-8-yl)carbamoyl)thiazole-5-sulfonimidamide]

IC50 [2]: 5 to 30 µM
Structure (SMILES): CN(C)Cc1ccc(S(N)(=O)=NC(=O)Nc2c3c(nc4c2CCC4)CCC3)cc1 (stereo not drawn) [Compound 130, 4-((dimethylamino)methyl)-N′-((1,2,3,5,6,7-hexahydrodicyclopenta[b,e]pyridin-8-yl)carbamoyl)benzenesulfonimidamide]

IC50 [3]: 1 to 5 µM
Structure (SMILES): Cc1c(C(F)(F)F)nc2c(c1NC(=O)N=S(N)(=O)c1cc(CO)n(C(C)C)n1)CCC2 (stereo not drawn) [Example 585, 5-(Hydroxymethyl)-1-isopropyl-N′-((3-methyl-2-(trifluoromethyl)-6,7-dihydro-5H-cyclopenta[b]pyridin-4-yl)carbamoyl)-1H-pyrazole-3-sulfonimidamide]

IC50 [4]: 0.04 to 0.2 µM
Structure (SMILES): C[C@@H]1CCc2c1nc1c(c2NC(=O)N=S(N)(=O)c2nn(C(F)F)cc2F)CCC1 (stereo partly drawn) [Compound 718a]

IC50 [5]: 0.2 to 1 µM
Structure (SMILES): CC(=O)c1csc(S(N)(=O)=NC(=O)Nc2c3c(nc4c2CC[C@H]4C)CCC3)c1 (single isomer, unassigned) [Example 665, (R) or (S)-4-acetyl-N′-(((R)-3-methyl-1,2,3,5,6,7-hexahydrodicyclopenta[b,e]pyridin-8-yl)carbamoyl)thiophene-2-sulfonimidamide]

IC50 [4]: 5 to 30 µM
Structure (SMILES): Cc1c(C2CC2)nc2c(c1NC(=O)N=S(N)(=O)c1cnn3c1OCCC3)CCC2 (single isomer, unassigned) [Compound 306b, (R) or (S)-N′-((2-cyclopropyl-3-methyl-6,7-dihydro-5H-cyclopenta[b]pyridin-4-yl)carbamoyl)-6,7-dihydro-5H-pyrazolo[5,1-b][1,3] oxazine-3-sulfonimidamide]

IC50 [2]: 1 to 5 µM
Structure (SMILES): CC(C)c1ncc(F)c(C(C)C)c1NC(=O)N=S(N)(=O)c1cnc(C(C)(C)O)s1 (stereo not drawn) [Compound 164, N′-((5-fluoro-2,4-diisopropylpyridin-3-yl)carbamoyl)-2-(2-hydroxypropan-2-yl)thiazole-5-sulfonimidamide]

IC50 [6]: 5 to 30 µM
Structure (SMILES): CC1CCc2c1nc1c(c2NC(=O)N=S(N)(=O)c2sc(C(C)(C)O)nc2CO)CCC1 (single isomer, unassigned) [Compound 168a, (S,R/S) or (R,R/S)-4-(hydroxymethyl)-2-(2-hydroxypropan-2-yl)-N′-((3-methyl-1,2,3,5,6,7-hexahydro-dicyclopenta[b,e]pyridin-8-yl)carbamoyl)thiazole-5-sulfonimidamide]

IC50 [4]: 5 to 30 µM
Structure (SMILES): Cc1c(C2CCC2)nc2c(c1NC(=O)N=S(N)(=O)c1cnc(C(C)(C)O)s1)CCC2 (stereo not drawn) [Compound 649, N′-((2-cyclobutyl-3-methyl-6,7-dihydo-5H-cyclopenta[b]pyridin-4-yl)carbamoyl)-2-(2-hydroxypropan-2-yl)thiazole-5-sulfonimidamide]

IC50 [4]: 0.2 to 1 µM
Structure (SMILES): CC(C)(O)c1sc(S(N)(=O)=NC(=O)Nc2c3c(nc4c2CCC4(C)C)CCC3)cc1F (stereo not drawn) [Compound 613, N′-((3,3-dimethyl-1,2,3,5,6,7-hexahydrodicyclopenta[b,e]pyridin-8-yl)carbamoyl)-4-fluoro-5-(2-hydroxypropan-2-yl)thiophene-2-sulfonimidamide]

IC50 [2]: 0.04 to 0.2 µM
Structure (SMILES): CC1CCc2c1nc1c(c2NC(=O)N=S(N)(=O)c2ncc(C(C)(C)O)s2)CCC1 (single isomer, unassigned) [Compound 140aa, (R,R) or (R,S)-5-(2-hydroxypropan-2-yl)-N′-((3-methyl-1,2,3,5,6,7-hexa-hydrodicyclo-penta[b,e]pyridin-8-yl)carbamoyl)thiazole-2-sulfonimidamide]

IC50 [7]: 0.04 to 0.2 µM
Structure (SMILES): Cc1c(C2CC2)nc2c(c1NC(=O)N=S(N)(=O)c1nc(C(C)(C)O)cs1)CCC2 (single isomer, unassigned) [Compound 626b, (R) or (S)-N′-((2-cyclopropyl-3-methyl-6,7-dihydro-5H-cyclopenta[b]pyridin-4-yl)carbamoyl)-4-(2-hydroxypropan-2-yl)thiazole-2-sulfonimidamide]

IC50 [6]: 5 to 30 µM
Structure (SMILES): CC(C)(O)c1ncc(S(N)(=O)=NC(=O)Nc2c3c(nc4c2CCC4F)CCC3)s1 (stereo not drawn) [Compound 183, N′-((3-fluoro-1,2,3,5,6,7-hexahydrodicyclopenta[b,e]pyridin-8-yl)carbamoyl)-2-(2-hydroxypropan-2-yl)thiazole-5-sulfonimidamide]

IC50 [8]: > 30 µM
Structure (SMILES): Cc1c(C(F)(F)F)nc2c(c1NC(=O)N=S(N)(=O)c1ccn(C(C)C)n1)CCC2 (single isomer, unassigned) [Compound 628a, (S) or (R)-1-Isopropyl-N′-((3-methyl-2-(trifluoromethyl)-6,7-dihydro-5H-cyclopenta[b]pyridin-4-yl)carbamoyl)-1H-pyrazole-3-sulfonimidamide]

IC50 [5]: 5 to 30 µM
Structure (SMILES): CCc1ncc(S(N)(=O)=NC(=O)Nc2c3c(nc4c2CC[C@H]4C)CCC3)s1 (single isomer, unassigned) [Example 673, (S) or (R)-2-ethyl-N′-(((R)-3-methyl-1,2,3,5,6,7-hexahydrodicyclopenta[b,e]pyridin-8-yl)carbamoyl) thiazole-5-sulfonimidamide]

IC50 [6]: 0.04 to 0.2 µM
Structure (SMILES): CC(C)c1ncc(F)c(C(C)C)c1NC(=O)N=S(N)(=O)c1nc(C(C)(C)O)cs1 (single isomer, unassigned) [Compound 163a, (R) or (S)-N′-((5-fluoro-2,4-diisopropylpyridin-3-yl)carbamoyl)-4-(2-hydroxypropan-2-yl)thiazole-2-sulfonimidamide]

IC50 [8]: > 30 µM
Structure (SMILES): CC(C)(O)c1cnc(S(N)(=O)=NC(=O)Nc2c3c(nc4c2CCC4O)CCC3)s1 (stereo not drawn) [Compound 710]

IC50 [7]: 5 to 30 µM
Structure (SMILES): CC(O)c1nc(C(C)(C)O)sc1S(=N)(=O)NC(=O)Nc1c2c(nc3c1CCC3)CCC2 (stereo not drawn) [Compound 643, N-((1,2,3,5,6,7-hexahydrodicyclopenta[b,e]pyridin-8-yl)carbamoyl)-4-(1-hydroxyethyl)-2-(2-hydroxypropan-2-yl)thiazole-5-sulfonimidamide]

IC50 [1]: > 30 µM
Structure (SMILES): CC(C)(O)c1ncc(S(N)(=O)=NC(=O)Nc2c3c(nc4c2CCC4=O)CCC3)s1 (stereo not drawn) [compound 593, 2-(2-Hydroxypropan-2-yl)-N′-((3-oxo-1,2,3,5,6,7-hexahydrodicyclopenta[b,e]pyridin-8-yl)carbamoyl)thiazole-5-sulfonimidamide]

IC50 [4]: 0.2 to 1 µM
Structure (SMILES): CC(C)(CO)c1ncc(S(N)(=O)=NC(=O)Nc2c3c(nc4c2CCC4(C)C)CCC3)s1 (stereo not drawn) [Compound 737]

IC50 [1]: > 30 µM
Structure (SMILES): CCn1cc(F)c(S(N)(=O)=NC(=O)Nc2c(C)c(CC(F)(F)F)nc3c2CCC3)n1 (single isomer, unassigned) [Example 718, (S) or (R)-1-ethyl-4-fluoro-N′-((3-methyl-2-(2,2,2-trifluoroethyl)-6,7-dihydro-5H-cyclopenta[b]pyridin-4-yl)carbamoyl)-1H-pyrazole-3-sulfonimidamide]

IC50 [7]: 0.2 to 1 µM
Structure (SMILES): CCC1CCc2c1nc1c(c2NC(=O)N=S(N)(=O)c2sc(C(C)(C)O)cc2F)CCC1 (single isomer, unassigned) [Compound 671d, (R, R) or (R, S) or (S, R) or (S, S)-N′-((3-ethyl-1,2,3,5,6,7-hexahydrodicyclopenta [b,e]pyridin-8-yl)carbamoyl)-3-fluoro-5-(2-hydroxypropan-2-yl) thiophene-2-sulfonimidamide]

IC50 [3]: 0.2 to 1 µM
Structure (SMILES): CC1(C)CCc2c1nc1c(c2NC(=O)N=S(N)(=O)c2sc(C(C)(O)CO)nc2CO)CCC1 (stereo not drawn) [Example 598, 2-(1,2-Dihydroxypropan-2-yl)-N′-((3,3-dimethyl-1,2,3,5,6,7-hexahydrodicyclopenta[b,e]pyridin-8-yl)carbamoyl)-4-(hydroxymethyl)thiazole-5-sulfonimidamide]

IC50 [3]: 1 to 5 µM
Structure (SMILES): CCn1cc(F)c(S(N)(=O)=NC(=O)Nc2c(C)c(CC(F)(F)F)nc3c2CCC3)n1 (single isomer, unassigned) [Example 717, (R) or (S)-1-ethyl-4-fluoro-N′-((3-methyl-2-(2,2,2-trifluoroethyl)-6,7-dihydro-5H-cyclopenta[b]pyridin-4-yl)carbamoyl)-1H-pyrazole-3-sulfonimidamide]

IC50 [4]: 5 to 30 µM
Structure (SMILES): Cc1c(C2CCC2)nc2c(c1NC(=O)N=S(N)(=O)c1cc(C(C)(C)O)cs1)CCC2 (stereo not drawn) [Compound 658, N′-((2-cyclobutyl-3-methyl-6,7-dihydro-5H-cyclopenta[b]pyridin-4-yl)carbamoyl)-4-(2-hydroxypropan-2-yl)thiophene-2-sulfonimidamide]

IC50 [7]: 5 to 30 µM
Structure (SMILES): Cc1c(C(F)(F)F)nc2c(c1NC(=O)N=S(N)(=O)c1cnc(C(C)(O)CO)s1)CCC2 (single isomer, unassigned) [Compound 605e, (R, S) or (S, S)-2-(1,2-Dihydroxypropan-2-yl)-N′-((3-methyl-2-(trifluoromethyl)-6,7-dihydro-5H-cyclopenta[b]pyridin-4-yl)carbamoyl) thiazole-5-sulfonimidamide]

IC50 [5]: 1 to 5 µM
Structure (SMILES): CC(C)(O)c1cc(F)c(S(N)(=O)=NC(=O)Nc2c3c(nc(C4CC4)c2C2CC2)CCC3)s1 (single isomer, unassigned) [Example 698, (S) or (R)-N′-((2,3-dicyclopropyl-6,7-dihydro-5H-cyclopenta[b]pyridin-4-yl)carbamoyl)-3-fluoro-5-(2-hydroxypropan-2-yl) thiophene-2-sulfonimidamide]
